According to patent publication US20110039926A1 (priority 2008, published 2011):

Columns and labels:
[1] = system: patients with Major Depressive Disorders (MDD); assay: multi-center, randomised, double-blinded, placebo-controlled 10 weeks study of F2695 in Major Depressive Disorders; assay type: in vivo, human
Excerpt: This was a multi-center, randomised, double-blinded, placebo-controlled 10 weeks study, assessing the efficacy and safety of F2695 flexible safety adapted dose in the treatment of patients with Major Depressive Disorders (MDD).
This study enrolled 563 patients who met the DSM-IV criteria for major depression with depression severity at the inclusion time assessed by HAM-D 17 score >22.
Patients were randomised to receive placebo or a flexible safety adapted dose by increasing progressively the administered doses using slow release capsules containing 25 or 50 mg of active drug (281 patients for placebo and 282 patients for F2695).
Placebo as well as F2695 were administered once a day as slow release capsules.
Slow release capsules were constituted of a plurality of minigranules each containing an active minisphere comprising a sucrose core containing F2695 as well as PVP as a binding agent; each minigranule being coated with a film of ethyl cellulose as described in EP 939 626. Placebo was constituted of the same slow release capsules of minigranules containing minispheres constituted only of a sucrose core.
The doses were administered in a dose escalation regimen during 10 days for initial titration. […]
Safety of F2695 was assessed by analysing: • frequency and intensity of adverse events as classified in the ICH guidelines (any adverse change from the subject's baseline condition, i.e. any subjective signs and symptoms, or change in a concomitant disease present at the selection visit, either considered or not related to the treatment) • suicidal risk evaluated by the MINI version 0.5 (modified Mini International Neuropsychiatric Interview) Efficiency of F2695 was assessed by: • MADRS Total score: change from baseline MMRM analysis (Full analysis data set) • MADRS Total score: change from baseline MMRM analysis (Per Protocol data set) • Responders and remitted patients compared to placebo group at Day 70 (end of the treatment period) Results from Safety

[2] = molecular target: T1, norepinephrine uptake (Rattus norvegicus, UniProt Q63380); conditions: homogenate of rat hypothalamus; versus racemic milnacipran hydrochloride; cited from earlier work
T1 construct: from tissue; host or cells: rat hypothalamus homogenate
T1 sequence (Q63380 1-617): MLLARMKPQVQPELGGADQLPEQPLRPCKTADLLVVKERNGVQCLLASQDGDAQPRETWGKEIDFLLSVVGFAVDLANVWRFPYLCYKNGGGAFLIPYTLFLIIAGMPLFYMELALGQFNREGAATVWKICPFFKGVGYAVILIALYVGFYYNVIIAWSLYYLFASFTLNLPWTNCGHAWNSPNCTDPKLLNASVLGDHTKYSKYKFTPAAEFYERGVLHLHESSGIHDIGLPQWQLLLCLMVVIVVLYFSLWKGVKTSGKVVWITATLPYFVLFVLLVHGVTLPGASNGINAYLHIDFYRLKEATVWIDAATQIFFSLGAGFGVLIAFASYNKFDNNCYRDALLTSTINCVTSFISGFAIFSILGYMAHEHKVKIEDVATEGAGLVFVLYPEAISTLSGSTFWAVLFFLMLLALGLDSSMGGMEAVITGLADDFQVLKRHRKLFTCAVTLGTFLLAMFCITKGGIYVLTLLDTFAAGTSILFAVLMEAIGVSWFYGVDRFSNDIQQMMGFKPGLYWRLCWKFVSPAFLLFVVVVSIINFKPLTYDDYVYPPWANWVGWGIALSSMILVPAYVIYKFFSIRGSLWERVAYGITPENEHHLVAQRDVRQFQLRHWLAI

[3] = compared with other psychotropic products such as clomipramine and milnacipran; cited from earlier work
[4] = system: patients suffering from psychiatric disorders (among them MDD); conditions: several trials, patients with psychiatric disorders (among them MDD); cited from earlier work

Row | Compound | patients presenting significant Suicidal Risk (%) ([1]; During the 6-weeks treatment and follow-up, versus 2.1% upon placebo) | patients presenting significant Suicidal Risk ([1]; During the 6-weeks treatment and follow-up, versus 6 patients upon placebo) [patient] | Suicidal Risk in patients suffering from depression ([1]; conclusion from the odds ratio obtained in a small population) | odds ratio (OR) of significant Suicidal Risk, F2695 versus placebo ([1]; logits method, confidence interval [0.0196, 1.3686]) | Insufficient response (withdrawn patients) ([1]; n = 282, number of patients) | Serious Adverse Event/Non Serious Adverse Event (withdrawn patients) ([1]; n = 282, number of patients) | Therapeutic Failure (withdrawn patients) ([1]; n = 282, number of patients) | Worsening of MDD (withdrawn patients) ([1]; n = 282, number of patients) | Significant Suicidal Risk (withdrawn patients) ([1]; n = 282, number of patients, suicidal risk evaluated by the MINI) | Insufficient response (withdrawn patients, %) ([1]; n = 282, percent of group) [%] | Serious Adverse Event/Non Serious Adverse Event (withdrawn patients, %) ([1]; n = 282, percent of group) [%] | Therapeutic Failure (withdrawn patients, %) ([1]; n = 282, percent of group) [%] | Worsening of MDD (withdrawn patients, %) ([1]; n = 282, percent of group) [%] | Significant Suicidal Risk (withdrawn patients, %) ([1]; n = 282, percent of group, suicidal risk evaluated by the MINI) [%] | efficiency in norepinephrine uptake relative to the racemate [2] | safety coefficient [3] | toxico-genomic profile [3] | odds ratio (OR) versus placebo, suicidal behaviour and ideation [4]
1 | CCN(CC)C(=O)[C@@]1(c2ccccc2)C[C@H]1CN.Cl [F2695, Z-(1S,2R)-2-(aminomethyl)-N,N-diethyl-1-phenyl cyclopropane carboxamide hydrochloride] | 0.4 | 1 | significantly reduced | 0.1637 | 16 | 26 | 22 | 11 | 1 | 5.7 | 9.2 | 7.8 | 3.9 | 0.4 | two | significantly better | superior | 
2 | CN(C)CCC[C@@]1(c2ccc(F)cc2)OCc2cc(C#N)ccc21 [escitalopram] |  |  |  |  |  |  |  |  |  |  |  |  |  |  |  |  |  | 1.57
